Legend:
[1] = test system: CYP1A1 and 1A2; assay: Ethoxyresorufin-O-deethylase (EROD) activity on cultured hepatocytes from humanized FRG mouse liver; type: cell-based, human; details: humanized mouse liver cells, FIG. 6a
[2] = test system: human drug metabolism genes; assay: Induction of mRNAs involved in drug metabolism in cultured hepatocytes from chimeric mice (real-time PCR)
Source text: (§1) The basal expression and induction of human liver specific genes in chimeric mice was examined. […] Primers, obtained from Applied Biosystems, were specific for human CYP1A1 (Hs00153120_m1), CYP1A2 (Hs00167927_m1), CYP3A4 (Hs00430021_m1), CYP3A7 (Hs00426361_a1), CYP2B6 (Hs00167937_g1), CYP2D6 (Hs00164385_a1), Multidrug resistance associated protein MRP2 (Hs00166123_m1), Bile Salt export Pump BSEP, (Hs00184829_m1), CAR (Hs00231959_m1) Albumin (Hs00609411_m1), HNF4α (Hs00230853_m1), Cyclophillin (Hs99999904_m1) and mouse actin (Ma00607939_s1).
(§2) Cultures of isolated hepatocytes were established and exposed to prototypical inducers of the cytochrome P450 genes. […] In addition to the mRNA expression levels of human drug metabolism genes, the enzymatic activity of the human CYP1A and 3A family members were measured. Ethoxyresorufin-O-deethylase activity (EROD) is known to be mediated by CYP1A1 and 1A2 in human liver.

[3] = test system: FRG mice; assay: Maintenance of FRG mice with NTBC in drinking water and NTBC withdrawal; type: in vivo, mouse
Source text: Several strains of immune-deficient Fah knockout mice were generated. Crossing the Fah mutation onto nude, nod/scid or Rag1^−/− backgrounds was unsuccessful. To generate an immunodeficient Fah^−/− mouse strain completely lacking T cells, B cells and NK cells, but without a DNA repair defect, Fah^−/−/Rag2^−/−/Il2rg^−/− (FRG) mice were generated. Male Fah^−/−129S4 mice (Grompe et al. Genes Dev. 7:2298-2307, 1993) were crossed with female Rag2^−/−/Il2rg^−/− mice (Taconic). All animals were maintained with drinking water containing 2-(2-nitro-4-trifluoro-methyl-benzoyl)-1,3 cyclohexanedione (NTBC) at a concentration of 1.6 mg/L (Grompe et al. Nat. Genet. 10:453-460, 1995). To confirm the genotypes of each animal, PCR-based genotyping was carried out on 200 ng genomic DNA isolated from toe tissue (Grompe et al. Genes Dev. 7:2298-2307, 1993; Traggiai et al. Science 304:104-107, 2004).

[4] = test system: CYP3A4; assay: Conversion of testosterone to 6-beta-hydroxyltestosterone in cultured hepatocytes from humanized FRG mouse liver; details: cultured hepatocytes from repopulated FRG livers, FIG. 6b
Source text: as §1, §2

O=c1cc(-c2ccccc2)oc2ccc3ccccc3c12 [BNF, beta-naphthoflavone]
EROD activity after prior exposure to inducer [1]: specifically and robustly induced | pattern of genes induced ([2]; cultured hepatocytes from chimeric mice, FIG. 7): as expected from normal human cells

O=C1CCCC(=O)C1C(=O)c1ccc(C(F)(F)F)cc1[N+](=O)[O-] [NTBC, 2-(2-nitro-4-trifluoro-methyl-benzoyl)-1,3 cyclohexanedione]
time to death after NTBC withdrawal ([3]; FRG mice, gradual hepatocellular injury after withdrawal): 4-8 weeks | growth and fertility of FRG mice ([3]; NTBC continuously in drinking water, 1.6 mg/L): grew well and were fully fertile

CCC1(c2ccccc2)C(=O)NC(=O)NC1=O [PB, phenobarbital]
induction of CYP3A4 mRNA ([2]; relative to non-induced cultures, FIG. 7b): even more striking than at the enzyme level | conversion of testosterone to 6-beta-hydroxyltestosterone after prior exposure to inducer [4]: specifically induced
